From patent US9187480B2, “Peripherally restricted diphenyl purine derivatives” (RESEARCH TRIANGLE INSTITUTE, priority 2012, dated 2015)

Key:
CB1 [1] = molecular target: T1, CB1 (Homo sapiens (Human), UniProt P21554); assay: CB1 activated Gαq16-coupled intracellular calcium mobilization assay in CHO-K1 cells; format: cell-based; settings: apparent affinity (Ke)
CB2 = CB2 (Homo sapiens (Human), UniProt P34972); assay: Displacement of [3H]CP55940 in membranes of CHO-K1 cells over-expressing CB2; format: binding; settings: radioligand [3H]CP55940, CHO-K1 membranes; read-out: Ki (nM) v. [3H]CP55940 at CB2
MDCK-MDR = MDCK-MDR transport (apical to basal); format: in vitro ADME
CB1 [2] = molecular target: T1, CB1; assay: Displacement of [3H]CP55940 in membranes of CHO-K1 cells over-expressing CB1;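 on all read-outs here: reported values are averages of 3-6 independent measurements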; settings: for Binding Selectivity using CP55940 Displacement: CB1 versus CB2; for Ki: read-out: Ki (nM) v. [3H]CP55940 at CB1, radioligand [3H]CP55940, CHO-K1 membranes
Description: Further characterization of select compounds was performed using radioligand displacement of [3H]1 and equilibrium dissociation constant (Ki) values were determined. Selectivity of these compounds at CB1 versus CB2 was also determined by obtaining Ki values at either receptor using displacement of [3H]CP55940 in membranes of CHO-K1 cells over-expressing either receptor. Data reported are average values from 3-6 measurements.
Selectivity against the CB2 receptor was determined by comparing the compound displacement of radiolabeled CP55940, which is a cannabinoid known to act as a full agonist at both CB1 and CB2 receptors.

[3] = Brain penetration / plasma and brain levels after oral dosing in SD rats; format: in vivo, Sprague-Dawley (SD) rats; settings: oral 10 mg/kg; for Kp at 1 h / Kp at 2 h / Kp at 4 h / Kp at 24 h / Kp: Sprague-Dawley, rat, brain and plasma; for Kp: range over sampling times, read-out: brain to plasma ratios; for Brain conc.: unperfused brain
Description: However, unlike otenabant, this sulfonamide is a peripherally selective compound. […] Select compounds were chosen for study to determine penetration into the CNS. Selected compounds were dosed orally at 10 mg/kg in SD rats. Brain and plasma samples were collected at 1, 2, 4, and 24 hours post dose and samples were analyzed by MS (Table 2, below). Since unperfused brains were used and the blood volume in unperfused brains is approximately 4%, a brain to plasma level of ≦0.04 represents no discernible penetration into the CNS.

Sequence of CB2 (P34972 whole entry): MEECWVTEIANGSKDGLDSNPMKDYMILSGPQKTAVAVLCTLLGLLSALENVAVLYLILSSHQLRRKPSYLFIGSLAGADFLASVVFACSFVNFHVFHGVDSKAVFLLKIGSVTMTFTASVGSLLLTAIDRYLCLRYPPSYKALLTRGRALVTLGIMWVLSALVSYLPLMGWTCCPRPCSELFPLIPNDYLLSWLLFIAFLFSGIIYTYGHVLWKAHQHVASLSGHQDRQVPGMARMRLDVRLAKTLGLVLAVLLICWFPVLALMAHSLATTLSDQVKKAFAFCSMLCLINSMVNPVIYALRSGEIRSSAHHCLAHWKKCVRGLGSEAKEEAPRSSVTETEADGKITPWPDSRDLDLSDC
T1 sequence (P21554 whole entry): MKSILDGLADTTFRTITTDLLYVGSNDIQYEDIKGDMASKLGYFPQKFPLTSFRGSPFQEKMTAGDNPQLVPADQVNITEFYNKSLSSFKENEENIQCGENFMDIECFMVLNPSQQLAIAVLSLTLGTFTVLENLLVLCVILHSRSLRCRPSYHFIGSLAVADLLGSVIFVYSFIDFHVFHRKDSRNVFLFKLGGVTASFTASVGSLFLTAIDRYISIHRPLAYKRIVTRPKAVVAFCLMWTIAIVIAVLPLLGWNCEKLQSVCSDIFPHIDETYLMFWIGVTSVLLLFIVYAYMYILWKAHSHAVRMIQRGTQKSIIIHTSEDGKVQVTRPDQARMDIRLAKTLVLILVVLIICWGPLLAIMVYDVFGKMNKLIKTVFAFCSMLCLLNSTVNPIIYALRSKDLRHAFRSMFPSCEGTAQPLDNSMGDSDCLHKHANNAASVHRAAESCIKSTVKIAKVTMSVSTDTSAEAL

SMILES	Ke (nM) at CB1 (CB1 [1])	Ki (CB2) [nM]	other results
NC1(c2ccccc2)CCN(c2ncnc3c2nc(-c2ccccc2Cl)n3-c2ccc(Cl)cc2)CC1	15.89 nM	1660	% MDCK-MDR transport (Apical to Basal) (MDCK-MDR): <1%; Binding Selectivity using CP55940 Displacement (CB1 [2]): 151; Ki (CB1 [2]): 11 nM
CCNC(=O)NC1(c2ccccc2)CCN(c2ncnc3c2nc(-c2ccccc2Cl)n3-c2ccc(Cl)cc2)CC1	443 nM	4640	Binding Selectivity using CP55940 Displacement (CB1 [2]): 24; Ki (CB1 [2]): 195 nM
CC(C)NC(=O)NC1(c2ccccc2)CCN(c2ncnc3c2nc(-c2ccccc2Cl)n3-c2ccc(Cl)cc2)CC1	46 nM	–	–
CCCNC(=O)NC1(c2ccccc2)CCN(c2ncnc3c2nc(-c2ccccc2Cl)n3-c2ccc(Cl)cc2)CC1	100 nM	–	–
CCCCNC(=O)NC1(c2ccccc2)CCN(c2ncnc3c2nc(-c2ccccc2Cl)n3-c2ccc(Cl)cc2)CC1	62 nM	–	–
CCOC(=O)CNC(=O)NC1(c2ccccc2)CCN(c2ncnc3c2nc(-c2ccccc2Cl)n3-c2ccc(Cl)cc2)CC1	171 nM	–	–
O=C(NC1CCCCC1)NC1(c2ccccc2)CCN(c2ncnc3c2nc(-c2ccccc2Cl)n3-c2ccc(Cl)cc2)CC1	199 nM	–	–
CC(C)(C)OC(=O)N1CCC(Nc2ncnc3c2nc(-c2ccccc2Cl)n3-c2ccc(Cl)cc2)CC1	92 nM	13600	Binding Selectivity using CP55940 Displacement (CB1 [2]): 568.8; Ki (CB1 [2]): 23.9 nM
Clc1ccc(-n2c(-c3ccccc3Cl)nc3c(NC4CCNCC4)ncnc32)cc1	Not active	–	–
CCNC(=O)N1CCC(Nc2ncnc3c2nc(-c2ccccc2Cl)n3-c2ccc(Cl)cc2)CC1	1148 nM	–	–
CC(C)NC(=O)N1CCC(Nc2ncnc3c2nc(-c2ccccc2Cl)n3-c2ccc(Cl)cc2)CC1	495 nM	–	–
CCCNC(=O)N1CCC(Nc2ncnc3c2nc(-c2ccccc2Cl)n3-c2ccc(Cl)cc2)CC1	1964 nM	–	–
CCCCNC(=O)N1CCC(Nc2ncnc3c2nc(-c2ccccc2Cl)n3-c2ccc(Cl)cc2)CC1	71 nM	–	–
CC(=O)N1CCC(Nc2ncnc3c2nc(-c2ccccc2Cl)n3-c2ccc(Cl)cc2)CC1	19595 nM	–	–
CS(=O)(=O)N1CCC(Nc2ncnc3c2nc(-c2ccccc2Cl)n3-c2ccc(Cl)cc2)CC1	1645 nM	–	–
CC(=O)N1CCCC(Nc2ncnc3c2nc(-c2ccccc2Cl)n3-c2ccc(Cl)cc2)C1 (stereo not shown)	4449 nM	–	–
CCNC(=O)N1CCCC(Nc2ncnc3c2nc(-c2ccccc2Cl)n3-c2ccc(Cl)cc2)C1 (stereo not shown)	1153 nM	–	–
CC(C)(C)OC(=O)NC1CCN(c2ncnc3c2nc(-c2ccccc2Cl)n3-c2ccc(Cl)cc2)CC1	11 nM	–	–
COC(=O)NC1CCN(c2ncnc3c2nc(-c2ccccc2Cl)n3-c2ccc(Cl)cc2)CC1	17 nM	–	–
O=C(NC1CCN(c2ncnc3c2nc(-c2ccccc2Cl)n3-c2ccc(Cl)cc2)CC1)c1ccccc1	–	10600	–
NC1CCN(c2ncnc3c2nc(-c2ccccc2Cl)n3-c2ccc(Cl)cc2)CC1	316 nM	–	–
CCNC(=O)NC1CCN(c2ncnc3c2nc(-c2ccccc2Cl)n3-c2ccc(Cl)cc2)CC1	149 nM	–	–

SMILES	Ke (nM) at CB1 (CB1 [1])	Ki (CB2) [nM]	other results
CC(C)NC(=O)NC1CCN(c2ncnc3c2nc(-c2ccccc2Cl)n3-c2ccc(Cl)cc2)CC1	133 nM	–	–
CCCNC(=O)NC1CCN(c2ncnc3c2nc(-c2ccccc2Cl)n3-c2ccc(Cl)cc2)CC1	132 nM	–	–
CCCCNC(=O)NC1CCN(c2ncnc3c2nc(-c2ccccc2Cl)n3-c2ccc(Cl)cc2)CC1	49 nM	–	–
CS(=O)(=O)NC1CCN(c2ncnc3c2nc(-c2ccccc2Cl)n3-c2ccc(Cl)cc2)CC1	71 nM	–	–
NS(=O)(=O)NC1CCN(c2ncnc3c2nc(-c2ccccc2Cl)n3-c2ccc(Cl)cc2)CC1	2768 nM	–	–
O=S(=O)(NC1CCN(c2ncnc3c2nc(-c2ccccc2Cl)n3-c2ccc(Cl)cc2)CC1)C(F)(F)F	1.05 nM	4500	Binding Selectivity using CP55940 Displacement (CB1 [2]): 738; Ki (CB1 [2]): 6.1 nM
O=S(=O)(NC1CCN(c2ncnc3c2nc(-c2ccccc2Cl)n3-c2ccc(Cl)cc2)CC1)c1ccccc1	0.26 nM	–	–
CC(=O)NC1CCN(c2ncnc3c2nc(-c2ccccc2Cl)n3-c2ccc(Cl)cc2)CC1	631 nM	–	–
O=C(NC1CCN(c2ncnc3c2nc(-c2ccccc2Cl)n3-c2ccc(Cl)cc2)CC1)C(F)(F)F	3.19 nM	–	–
O=C(CCN1CCCCC1)NC1CCN(c2ncnc3c2nc(-c2ccccc2Cl)n3-c2ccc(Cl)cc2)CC1	789 nM	–	–
CN(C)CC(=O)NC1CCN(c2ncnc3c2nc(-c2ccccc2Cl)n3-c2ccc(Cl)cc2)CC1	140 nM	–	–
O=C(NC1CCN(c2ncnc3c2nc(-c2ccccc2Cl)n3-c2ccc(Cl)cc2)CC1)C1CCCCC1	3.3 nM	835	Binding Selectivity using CP55940 Displacement (CB1 [2]): 249; Ki (CB1 [2]): 3.35 nM
O=C(CC1CCCCC1)NC1CCN(c2ncnc3c2nc(-c2ccccc2Cl)n3-c2ccc(Cl)cc2)CC1	2.1 nM	2360	Ki (CB1 [2]): 1.93 nM
CC(C)CC(=O)NC1CCN(c2ncnc3c2nc(-c2ccccc2Cl)n3-c2ccc(Cl)cc2)CC1	5.4 nM	89.5	Binding Selectivity using CP55940 Displacement (CB1 [2]): 22; Ki (CB1 [2]): 4.01 nM
O=C(NC1CCN(c2ncnc3c2nc(-c2ccccc2Cl)n3-c2ccc(Cl)cc2)CC1)C1CCCC1	0.89 nM	60.2	Binding Selectivity using CP55940 Displacement (CB1 [2]): 39; Ki (CB1 [2]): 1.54 nM
CC(C)CCC(=O)NC1CCN(c2ncnc3c2nc(-c2ccccc2Cl)n3-c2ccc(Cl)cc2)CC1	7.4 nM	215	Binding Selectivity using CP55940 Displacement (CB1 [2]): 81; Ki (CB1 [2]): 2.67 nM
O=C(CC1CCCC1)NC1CCN(c2ncnc3c2nc(-c2ccccc2Cl)n3-c2ccc(Cl)cc2)CC1	2.9 nM	569	Binding Selectivity using CP55940 Displacement (CB1 [2]): 282; Ki (CB1 [2]): 2.02 nM
CCOC(=O)NC1CCN(c2ncnc3c2nc(-c2ccccc2Cl)n3-c2ccc(Cl)cc2)CC1 [drawing 62]	2.3 nM	426	Binding Selectivity using CP55940 Displacement (CB1 [2]): 119; Ki (CB1 [2]): 3.57 nM
CCCCC(=O)NC1CCN(c2ncnc3c2nc(-c2ccccc2Cl)n3-c2ccc(Cl)cc2)CC1 [drawing 78]	4.9 nM	1050	Binding Selectivity using CP55940 Displacement (CB1 [2]): 54; Ki (CB1 [2]): 19.5 nM
CCOC(=O)NC1CCN(c2ncnc3c2nc(-c2ccccc2Cl)n3-c2ccc(Cl)cc2)CC1 [drawing 84]	–	–	Kp at 1 h ([3]; 1 hour post dose): 0.28; Kp at 2 h ([3]; 2 hours post dose): 0.14; Kp at 4 h ([3]; 4 hours post dose): 0.16; Kp at 24 h ([3]; 24 hours post dose): 0.46; Kp [3]: 0.14 to 0.46; Plasma conc. ([3]; 1 hour post dose): 740 ng/mL; Plasma conc. ([3]; 2 hours post dose): 971 ng/mL; Plasma conc. ([3]; 4 hours post dose): 1750 ng/mL; Plasma conc. ([3]; 24 hours post dose): 72.6 ng/mL; Brain conc. ([3]; 1 hour post dose): 207 ng/mL; Brain conc. ([3]; 2 hours post dose): 132 ng/mL; Brain conc. ([3]; 4 hours post dose): 276 ng/mL; Brain conc. ([3]; 24 hours post dose): 33.5 ng/mL
CCCCC(=O)NC1CCN(c2ncnc3c2nc(-c2ccccc2Cl)n3-c2ccc(Cl)cc2)CC1 [drawing 85]	–	–	Kp at 1 h ([3]; 1 hour post dose): 0.03; Kp at 2 h ([3]; 2 hours post dose): 0.03; Kp at 4 h ([3]; 4 hours post dose): 0.07; Kp at 24 h ([3]; 24 hours post dose): 0.13; Kp [3]: 0.03 to 0.13; Plasma conc. ([3]; 1 hour post dose): 1430 ng/mL; Plasma conc. ([3]; 2 hours post dose): 2780 ng/mL; Plasma conc. ([3]; 4 hours post dose): 1680 ng/mL; Plasma conc. ([3]; 24 hours post dose): 18.7 ng/mL; Brain conc. ([3]; 1 hour post dose): 43.6 ng/mL; Brain conc. ([3]; 2 hours post dose): 72.4 ng/mL; Brain conc. ([3]; 4 hours post dose): 119 ng/mL; Brain conc. ([3]; 24 hours post dose): 2.36 ng/mL
